# Reference: patent US4032659A (priority 1975, dated 1977)
# “And” between values parts separate entries of the source, which are not always exact repeats. Equal values may be shown once. Read-outs that look alike come from different tables or passages of the source.
# Assays:
# [1] = test system: Influenza PR 8 virus; assay: Chemoprophylaxis of Influenza PR 8 virus infection in mice; assay type: in vivo, mouse; details: oral
# [2] = test system: Influenza Ann Arbor virus; assay: Chemoprophylaxis of Influenza Ann Arbor (A1) virus infection in mice; assay type: in vivo, mouse; details: oral
# [3] = test system: virus infections; assay: Antiviral screening program, several viruses; details: mouse, in vivo
# [4] = test system: Influenza B Massachusetts virus; assay: Chemoprophylaxis of Influenza B Massachusetts virus infection in mice; assay type: in vivo, mouse; details: oral
# Description: The activity of four compounds on Influenza B Mass. was tested in mice.
# A portion of a commercially available sample of amantadine was recrystallized from isopropanol. The activity of the material against Influenza B Mass. was tested for the sample as obtained, the recrystallized portion, and the mother liquor obtained from recrystallizing the portion.
# [5] = test system: Herpes virus; assay type: in vivo, mouse
# [6] = test system: Influenza A PR8 virus; parameters: dose or concentration left out as unconfirmed; details: cited from earlier work
# [7] = test system: pox virus; assay: Pox virus infections of mice; details: mouse, in vivo
# [8] = test system: Influenza B Maryland virus; assay: Chemoprophylaxis of Influenza B Maryland virus infection in mice; assay type: in vivo, mouse; details: for No. animals surviving when 18/20 of controls are dead / Survivors: oral
smiles,measurement,setting,value
"NNC(=O)c1ccncc1 [Isoniazid, isoniazid, reference compound]",No. animals surviving after 7 days,[1]; total dose 5 μg,5
same,Survivors,[1]; total dose 5 μg,2
same,No. animals surviving after 7 days,[1]; total dose .0000005 μg,1
same,Survivors,[1]; total dose .0000005 μg,0
same,No. animals surviving after 7 days,[1]; total dose .000005 μg,2
same,Survivors,[1]; total dose .000005 μg,0
same,No. animals surviving after 7 days,[1]; total dose .00005 μg,0
same,Survivors,[1]; total dose .00005 μg,0
same,No. animals surviving after 7 days,[1]; total dose .0005 μg,0
same,Survivors,[1]; total dose .0005 μg,0
same,No. animals surviving after 7 days,[1]; total dose .005 μg,1
same,Survivors,[1]; total dose .005 μg,1
same,No. animals surviving after 7 days,[1]; total dose .05 μg,2
same,Survivors,[1]; total dose .05 μg,1
same,No. animals surviving after 7 days,[1]; total dose .5 μg,2
same,Survivors,[1]; total dose .5 μg,1
same,Survivors,[2]; total dose .005 μg,2
same,Survivors,[2]; total dose .05 μg,2 and 1
same,Survivors,[2]; total dose .5 μg,2 and 1
same,activity (in words),[3],"active against Influenza PR 8, Influenza Ann Arbor, Influenza B Mass., and Herpes virus"
same,No. animals surviving after 5 days,[4]; total dose .000005 μg,3
same,No. animals surviving when 100% controls are dead,[4]; total dose .000005 μg,0
same,Survivors,[4]; total dose .000005 μg,0
same,No. animals surviving after 5 days,[4]; total dose .00005 μg,2
same,No. animals surviving when 100% controls are dead,[4]; total dose .00005 μg,1
same,Survivors,[4]; total dose .00005 μg,0
same,No. animals surviving after 5 days,[4]; total dose .0005 μg,3
same,No. animals surviving when 100% controls are dead,[4]; total dose .0005 μg,2
same,Survivors,[4]; total dose .0005 μg,0
same,No. animals surviving after 5 days,[4]; total dose .005 μg,5
same,No. animals surviving when 100% controls are dead,[4]; total dose .005 μg,1
same,Survivors,[4]; total dose .005 μg,0
same,No. animals surviving after 5 days,[4]; total dose .05 μg,3
same,No. animals surviving when 100% controls are dead,[4]; total dose .05 μg,1
same,Survivors,[4]; total dose .05 μg,0
same,No. animals surviving after 5 days,[4]; total dose .5 μg,3
same,No. animals surviving when 100% controls are dead,[4]; total dose .5 μg,0
same,Survivors,[4]; total dose .5 μg,0
same,No. animals surviving after 6 days,"[5]; mouse, in vivo, po",2 and 1
same,Survivors,"[5]; oral, total dose .0000005 μg",1
same,No. animals surviving when 17/20 controls are dead,"[5]; oral, total dose .000005 μg",3
same,No. animals surviving after 6 days,"[5]; oral, total dose .00005 μg",0
same,No. animals surviving when 17/20 controls are dead,"[5]; oral, total dose .00005 μg",3
same,No. animals surviving after 6 days,"[5]; oral, total dose .0005 μg",3
same,No. animals surviving when 17/20 controls are dead,"[5]; oral, total dose .0005 μg",0
same,No. animals surviving when 17/20 controls are dead,"[5]; oral, total dose .005 μg",2
same,No. animals surviving when 17/20 controls are dead,"[5]; oral, total dose .05 μg",1
same,Survivors,"[5]; oral, total dose .05 μg",1
"CC(C=NNC(=N)N)=NNC(=N)N [methyl-GAG, Methylgloxal-bis-guanylhydrazone]",inhibition,[6]; lower limit,Ninety
same,Toxicity,[6]; upper limit,toxic
"CN1C(=O)/C(=N\NC(N)=S)c2ccccc21 [Methisazone, 1-methylindole-2,3-dione,3-thiosemicarbazone, reference compound]",activity,[7],active against pox virus infections of mice
same,No. animals surviving after 5 days,[2]; total dose 5 μg,4
same,Survivors,[2]; total dose 5 μg,0
same,No. animals surviving after 5 days,[2]; total dose 50 μg,3
same,Survivors,[2]; total dose 50 μg,0
same,No. animals surviving after 5 days,[2]; total dose .00005 μg,6
same,Survivors,[2]; total dose .00005 μg,0
same,No. animals surviving after 5 days,[2]; total dose .0005 μg,5
same,Survivors,[2]; total dose .0005 μg,0
same,No. animals surviving after 5 days,[2]; total dose .005 μg,5
same,Survivors,[2]; total dose .005 μg,0
same,No. animals surviving after 5 days,[2]; total dose .05 μg,4
same,Survivors,[2]; total dose .05 μg,0
same,No. animals surviving after 5 days,[2]; total dose .5 μg,6
same,Survivors,[2]; total dose .5 μg,0
same,activity (in words),[3],found to have activity
same,activity,"[8]; mouse, in vivo",active against Influenza B Maryland virus
same,No. animals surviving when 18/20 of controls are dead,[8]; total dose 6 ng,4
same,Survivors,[8]; total dose 6 ng,2
same,No. animals surviving when 18/20 of controls are dead,[8]; total dose 60 ng,4
same,Survivors,[8]; total dose 60 ng,2
same,No. animals surviving when 18/20 of controls are dead,[8]; total dose 600 ng,2
same,Survivors,[8]; total dose 600 ng,2
same,No. animals surviving when 18/20 of controls are dead,[8]; total dose 6 μg,4
same,Survivors,[8]; total dose 6 μg,1
same,No. animals surviving after 6 days,"[5]; mouse, in vivo, po",1
same,No. animals surviving after 6 days,"[5]; oral, total dose .00005 μg",0
same,No. animals surviving after 6 days,"[5]; oral, total dose .0005 μg",0
same,No. animals surviving after 6 days,"[5]; oral, total dose .005 μg",0
same,Survivors,"[5]; oral, total dose .05 μg",0
